What was measured:
[1] = target: T1, Recombinant human protein tyrosine phosphatase 1B (Homo sapiens, UniProt P18031); test: Protein tyrosine phosphatase 1B inhibitory activity (malachite green, phosphorylated insulin receptor peptide substrate); format: biochemical; conditions: recombinant human PTP1B, 60 min room temperature, absorbance 650 nm
T1 construct: purchased UBI
T1 sequence (P18031 1-435): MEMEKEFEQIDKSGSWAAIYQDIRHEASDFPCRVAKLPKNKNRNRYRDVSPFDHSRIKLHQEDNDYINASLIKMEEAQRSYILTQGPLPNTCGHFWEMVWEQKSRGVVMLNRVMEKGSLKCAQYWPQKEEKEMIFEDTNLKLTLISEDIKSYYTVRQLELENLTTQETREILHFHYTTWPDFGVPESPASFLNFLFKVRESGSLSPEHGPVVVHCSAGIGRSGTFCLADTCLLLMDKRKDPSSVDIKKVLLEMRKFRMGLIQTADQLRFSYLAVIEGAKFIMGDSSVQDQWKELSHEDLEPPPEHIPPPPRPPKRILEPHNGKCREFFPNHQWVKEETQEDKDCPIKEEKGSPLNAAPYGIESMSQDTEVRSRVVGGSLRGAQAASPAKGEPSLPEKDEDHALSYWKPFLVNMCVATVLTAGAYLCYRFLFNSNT
Description: Preparation of Assay Buffer:
A 50 mM Tris-HCl buffer (pH 7.5), 50 mM NaCl and 3 mM dithiothreitol (DTT) were prepared.
[…] 0.1, 0.3, 1, 3 and 10 μM of the test compound were prepared and diluted with the above-mentioned assay buffer to the final dimethyl sulfoxide (DMSO) concentration of not more than 1%. As the control, the assay buffer was used.
Preparation of Substrate:
Recombinant human protein tyrosine phosphatase 1B (manufactured by UBI) was diluted with the above-mentioned assay buffer (1.2 ng/25 μl).
The sample (10 μl) prepared as mentioned above and a substrate (25 μl) were successively added to a 96 well plate, and the enzyme (25 μl) prepared as mentioned above was added and mixed. The mixture was incubated at room temperature for 60 min and a malachite green (120 μl, Biomol), which is a color reagent, was added. The mixture was further incubated at room temperature for 20 min to allow for color development. An absorbance at 650 nm was measured on a plate reader based on which the protein tyrosine phosphatase 1B inhibitory activity of the test compound was evaluated.

| IC50 [1] [µM] | melting point | SMILES |
| --- | --- | --- |
| 0.27 | 137 to 139 °C | CCCC(CCC)c1ccc(OCc2ccc(-c3ccc(C(=O)N(CC(=O)O)Cc4ccc(N(C)C)cc4)s3)cc2)cc1 [Example 4-45] |
| 0.11 | 242.4 to 265.9 °C | C[C@H]1CC[C@H](c2ccc(COc3ccc(-c4ccc(CN5CCN(c6ccc(C(=O)O)cc6)CC5)s4)cc3)cc2)CC1 [Example 4-74] |
| 0.17 | 153.7 to 154.9 °C | CCCC(CCC)c1ccc(OCc2ccc(-c3csc(COc4cc(C(=O)O)ccc4NC(=O)C(C)C)c3)cc2)cc1 [Example 4-57] |
| 0.37 | 117 to 123.1 °C | Cc1ccc(OCc2ccc(C3CCCCC3)cc2)c(-c2csc(CN(C)[C@@H](Cc3ccccc3)C(=O)O)c2)c1 [Example 4-102] |
| 0.25 | 156.5 to 165.5 °C | CCCC(CCC)c1ccc(OCc2ccc(-c3csc(COc4cc(C(=O)O)ccc4N)c3)cc2)cc1 [Example 4-61] |
| 0.19 | 194.2 to 195.5 °C | CCCC(CCC)c1ccc(OCc2ccc(-c3csc(COc4ccc(C(=O)O)cc4)c3)cc2)cc1 [Example 4-58] |
| < 0.1 | 116 to 117.6 °C | CCCC(CCC)c1ccc(OCc2ccc(-c3ccc(CN(CC(=O)O)c4nc(-c5ccc(Cl)cc5)cs4)s3)cc2)cc1 [Example 4-107] |
| < 0.1 | 146.7 to 148.9 °C | CCCC(CCC)c1ccc(OCc2ccc(-c3csc(CN(CC(=O)O)Cc4cc5ccccc5o4)c3)cc2)cc1 [Example 4-92] |
| < 0.1 | 133.9 to 135.1 °C | CCCC(CCC)c1ccc(OCc2ccc(-c3csc(CSc4ccc(C(=O)O)cc4)c3)cc2)cc1 [Example 4-60] |
| 0.19 | 69.4 to 78.3 °C | CCCC(CCC)c1ccc(OCc2cccc(-c3csc(CN4CCc5ccc(C(=O)O)cc5C4)c3)c2)cc1 [Example 4-73] |
| < 0.1 | 168 to 169.9 °C | C[C@H]1CC[C@H](c2ccc(COc3ccc(-c4ccc(CN(CC5CCCCC5)C(=O)Nc5ccc(C(=O)O)cc5)s4)cc3)cc2)CC1 [Example 4-80] |
| 0.38 | 202.7 to 204.3 °C | CCCC(CCC)c1ccc(OCc2ccc(-c3ccc(CN(CC(=O)O)Cc4ccc(SC)cc4)s3)cc2)cc1 [Example 4-78] |
| 0.16 | 203.4 to 205.3 °C | CCCC(CCC)c1ccc(OCc2ccc(-c3csc(CN(CC(=O)O)Cc4ccc5[nH]ccc5n4)c3)cc2)cc1 [Example 4-90] |
| < 0.1 | 150.9 to 152.8 °C | CCCC(CCC)c1ccc(OCc2ccc(-c3csc(CN(CC(=O)O)Cc4nc5ccccc5s4)c3)cc2)cc1 [Example 4-88] |
| 0.42 | 161 to 164.3 °C | Cl.O=C(O)CN(Cc1ccccc1)Cc1ccc(-c2cn(Cc3ccc(C4CCCCC4)cc3)c3ccccc23)s1 [Example 4-63] |
| 0.12 | 127.4 to 130 °C | CCCC(CCC)c1ccc(OCc2ccc(-c3ccc(CN(CC(=O)O)Cc4nc5ccccc5o4)s3)cc2)cc1 [Example 4-96] |
| 0.07 | 176 to 178 °C | CCCC(CCC)c1ccc(OCc2ccc(-c3ccc(C(=O)N4CCC(c5ccc(C(=O)O)cc5)CC4)s3)cc2)cc1 [Example 4-53] |
| 0.12 | 172 to 174 °C | CCCC(CCC)c1ccc(OCc2ccc(-c3ccc(CN(CC(=O)O)CC(=O)Nc4ccc(C(C)C)cc4)s3)cc2)cc1 [Example 4-9] |
| 0.12 | 134 to 136 °C | CCCC(CCC)c1ccc(OCc2ccc(-c3ccc(C(=O)N(CC(=O)O)Cc4ccc(C(C)C)cc4)s3)cc2)cc1 [Example 4-44] |
| 0.17 | 185 to 188 °C | CCCC(CCC)c1ccc(OCc2ccc(-c3ccc(C(=O)N(CC(=O)O)Cc4nc5ccccc5n4C)s3)cc2)cc1 [Example 4-42] |
| < 0.1 | 181.4 to 184.5 °C | CCCC(CCC)c1ccc(OCc2ccc(-c3ccc(CN(CC(=O)O)Cc4cc(-c5ccccc5)cs4)s3)cc2)cc1 [Example 4-98] |
| 0.15 | 146 to 152 °C | CCCC(CCC)c1ccc(OCc2ccc(-c3csc(CN(CC(=O)O)C(=O)COc4ccc(C(C)C)cc4)c3)cc2)cc1 [Example 4-69] |
| 0.092 | 153 to 155 °C | CCCC(CCC)c1ccc(OCc2ccc(-c3csc(CN(CC(=O)O)Cc4nc5ccccc5[nH]4)c3)cc2)cc1 [Example 4-6] |
| < 0.1 | 225 to 229 °C (dec.) | CCN(C[C@H]1CC[C@H](c2ccc(C(C)(C)C)cc2)CC1)c1ccc(-c2csc(CN3CCC(c4ccc(C(=O)O)cc4)CC3)c2)cc1 [Example 4-68] |
| < 0.1 | 203.8 to 206.2 °C | CCCC(CCC)c1ccc(OCc2ccc(-c3csc(CN(CC(=O)O)Cc4ccc(-c5cccs5)s4)c3)cc2)cc1 [Example 4-93] |

The remaining lines, values behind:

| SMILES | IC50 [1] [µM] | melting point |
| --- | --- | --- |
| CCCC(CCC)c1ccc2c(c1)nc(-c1csc(COc3ccc(C(=O)O)cc3)n1)n2Cc1ccc(C(C)C)cc1 [Example 1-158] | 0.29 | 147 to 152 °C |
| CCCC(CCC)c1ccc(OCc2ccc(-c3csc(Cn4nc(C(=O)O)cc4C(C)(C)C)n3)cc2)cc1 [Example 1-178] | 0.44 | 195 to 196.5 °C |
| CCCC(CCC)c1ccc(COc2ccc(-c3csc(CN4Cc5ccccc5C[C@H]4C(=O)O)n3)cc2)cc1 [Example 3-26] | 0.11 | 90 to 93 °C |
| CCCC(CCC)c1ccc(OCc2ccc(-c3csc(CC4CCN(c5ccc(C(=O)O)cc5)CC4)n3)cc2)cc1 [Example 1-181] | 0.2 | 174 to 175 °C |
| CCCC(CCC)c1ccc(Cn2cc(-c3csc(COc4ccc(C(=O)O)cc4)n3)c3ccccc32)cc1 [Example 1-157] | 0.17 | 199 to 200 °C |
| CCCC(CCC)c1ccc(Cn2cc(-c3csc(CN4CCN(c5cccc(C(=O)O)c5)CC4)n3)c3ccccc32)cc1 [Example 1-172] | 0.28 | 107 to 110 °C |
| CCCC(CCC)c1ccc(Cn2cc(-c3csc(Cn4cc(C(=O)O)c5ccccc54)n3)c3ccccc32)cc1 [Example 1-182] | 0.19 | 148 to 152 °C |
| CCCC(CCC)c1ccc(COc2ccc(-c3csc(CN4CCN(c5cccc(C(=O)O)c5)CC4)n3)cc2)cc1 [Example 1-156] | 0.19 | 153 to 154 °C |
| CN(C[C@H]1CC[C@H](c2ccc(Cl)cc2)CC1)c1ccc(-c2csc(CN3CCC(C(=O)O)(c4ccccc4)CC3)n2)cc1 [Example 3-70] | 0.16 | 167 to 170 °C (dec.) |
| CCCC(CCC)c1ccc(Cn2cc(-c3csc(CNc4cccc(C(=O)O)c4)n3)c3ccccc32)cc1 [Example 1-167] | 0.41 | 83 to 85 °C |
| CCC(CC)c1ccc(COc2ccc(-c3csc(CN(CC(=O)O)Cc4ccc(F)cc4)n3)cc2)cc1 [Example 3-14] | 0.38 | 153 to 155 °C |
| CCCC(CCC)c1ccc(CN(C)c2ccc(-c3csc(CN(C)[C@H](C(=O)O)c4ccccc4)n3)cc2)cc1 [Example 3-87] | 0.21 | 146 °C |
| CN(Cc1ccc([C@H]2CC[C@H](C)CC2)cc1)c1ccc(-c2csc(CN3Cc4ccccc4CC3C(=O)O)n2)cc1 (stereo partly shown) [Example 3-71] | 0.095 | 202 to 205 °C |
